Experimental data published in PubChem BioAssay (NCI).
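96-well plates; 48 h exposure; 5 concentrations. Endpoints by linear interpolation between flanking doses. Not reached: highest tested concentration assigned. TGI is the concentration that stops growth completely.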

Key:
Assay in all cases: NCI-60 cell line screen, 48 h
HOP-62 NSCLC = tested on: HOP-62 NSCLC
SK-MEL-2 melanoma = tested on: SK-MEL-2 melanoma
CAKI-1 renal = tested on: CAKI-1 renal
SK-MEL-5 melanoma = tested on: SK-MEL-5 melanoma
MALME-3M melanoma = tested on: MALME-3M melanoma
SF-539 CNS = tested on: SF-539 CNS
786-0 renal = tested on: 786-0 renal
OVCAR-4 ovarian = tested on: OVCAR-4 ovarian
SR leukemia = tested on: SR leukemia
KM12 colon = tested on: KM12 colon
OVCAR-3 ovarian = tested on: OVCAR-3 ovarian
TK-10 renal = tested on: TK-10 renal
A498 renal = tested on: A498 renal
EKVX NSCLC = tested on: EKVX NSCLC
HCC-2998 colon = tested on: HCC-2998 colon
RXF-631 renal = tested on: RXF-631 renal
UACC-62 melanoma = tested on: UACC-62 melanoma
SNB-19 CNS = tested on: SNB-19 CNS
NCI-H460 lung = tested on: NCI-H460 lung
U251 CNS = tested on: U251 CNS
OVCAR-8 ovarian = tested on: OVCAR-8 ovarian
NCI-H226 lung = tested on: NCI-H226 lung
HCT-15 colon = tested on: HCT-15 colon
IGROV1 ovarian = tested on: IGROV1 ovarian
UO-31 renal = tested on: UO-31 renal
RXF 393 renal = tested on: RXF 393 renal
A549 NSCLC = tested on: A549 NSCLC
NCI-H522 lung = tested on: NCI-H522 lung
OVCAR-5 ovarian = tested on: OVCAR-5 ovarian
SK-OV-3 ovarian = tested on: SK-OV-3 ovarian
LXFL 529 NSCLC = tested on: LXFL 529 NSCLC
CCRF-CEM leukemia = tested on: CCRF-CEM leukemia
K-562 leukemia = tested on: K-562 leukemia
ACHN renal = tested on: ACHN renal
DMS 114 small cell lung = tested on: DMS 114 small cell lung
HT29 colon = tested on: HT29 colon
SW-620 colon = tested on: SW-620 colon
HOP-92 NSCLC = tested on: HOP-92 NSCLC
SNB-78 CNS = tested on: SNB-78 CNS
HL-60(TB) leukemia = tested on: HL-60(TB) leukemia
NCI-H23 lung = tested on: NCI-H23 lung
MOLT-4 leukemia = tested on: MOLT-4 leukemia
SN12C renal = tested on: SN12C renal
XF 498 CNS = tested on: XF 498 CNS
HOP-18 NSCLC = tested on: HOP-18 NSCLC
RPMI-8226 leukemia = tested on: RPMI-8226 leukemia
M19-MEL melanoma = tested on: M19-MEL melanoma
UACC-257 melanoma = tested on: UACC-257 melanoma
DMS 273 small cell lung = tested on: DMS 273 small cell lung
LOX IMVI melanoma = tested on: LOX IMVI melanoma
KM20L2 colon = tested on: KM20L2 colon
HCT-116 colon = tested on: HCT-116 colon
SNB-75 CNS = tested on: SNB-75 CNS
SF-295 CNS = tested on: SF-295 CNS
DLD-1 colon = tested on: DLD-1 colon
M14 melanoma = tested on: M14 melanoma
SF-268 CNS = tested on: SF-268 CNS
COLO 205 colon = tested on: COLO 205 colon
SK-MEL-28 melanoma = tested on: SK-MEL-28 melanoma

Measured: TGI

CCOCc1cc(=O)c2cc3c(cc2o1)OC(C)(C)CC3
not listed: SK-MEL-28 melanoma
> 100 µM: all other assays above

CCOC(=O)Cn1c(=O)[nH]c(=O)c2c1ncn2Cc1ccccc1
> 100 µM: all assays above
